Laboratory results reported in US20190225643A1, “NOVEL NUCLEOSIDE ANALOGS AND USE THEREOF IN THERAPEUTIC TREATMENT” (CORNELL UNIVERSITY, priority 2016, published 2019).
Where two headings read alike, the source gives them in different places.

Key:
BC3 (PEL) = assay: cells; assay type: cell-based
Method: (§1) Cell viability assays were performed by plating log-phase cells in RPMI complete media with 20% FBS at 1*10^5 cells/mL, with concentrations of 6-ETI or phospho-6-ETI ranging from 0.1 nM to 100 μM. ATP content at 24, 48 and 72 hours post-treatment was measured by the CellTiter-Glo kit (Promega, Madison, Wis.), or by Trypan blue assay as indicated. The LC50 for 6-ETI in each cell line was determined using online EC50 software at changbioscience.com or using GraphPad Prism to determine the LC50 for 6-ETI, phospho-6-ETI and nucleoside analogs in MM cell lines and primary MM patient samples.

IBL-1 (EBV+ DLBCL) = assay: cells; assay type: cell-based
Method: as §1

U266 (MM) = assay: cells; assay type: cell-based
Method: as §1

[1] = test system: BC3 cells treated with 6-ETI; assay: 6-ETI viability curves after ADK inhibitor pre-treatment; assay type: cell-based, human; conditions: pre-treatment with 1 μM ADK inhibitor
Method: as §1

ADK = ADK (Homo sapiens, UniProt P55263); conditions: known values; read-out: IC50 of ADK inhibition in intact cells; cited from earlier work
PEL cell line = PEL cell line viability assay of C8-modified analogs; assay type: cell-based
Method: as §1

[2] = test system: BC3NFRen-luc #3 PEL xenograft; assay: PEL xenograft model (BC3NFRen-luc #3 in NOD-SCID mice); assay type: in vivo; conditions: 200 mg/kg for 9 days
Method: The BC3 in vivo xenograft model was set up as previously described (6). Essentially, ˜4-6 week old male NOD-SCID mice (Jackson Labs Stock# 001303) were injected intraperitoneally (I.P.) with 1*10^7 BC3NFRen-luc #3 cells and followed by in vivo imaging every three days. After imaging on day 5 to confirm establishment of the tumor, the mice were randomized to vehicle, low dose and high dose cohorts, with average tumor burden distributed evenly across the groups. Each dose cohort contained 10 mice. Mice were treated for nine days beginning at randomization with vehicle (PBS-Tween80), low dose 6-ETI (150 mg/kg/day), or high dose 6-ETI (300 mg/kg/day). Mice were treated with 200 mg/kg of the 6-ETI analogs (phospho-6ETI and 6-ETI cAMP) for 9 days. We monitored mice for tumor growth by live imaging and weighing, with sacrifice point determined to be a net gain or loss of 10% body weight over a week. Upon reappearance of refractory tumors, mice were re-treated for a further 9-day interval, and followed for a total of 100 days. Compound effects were assessed on overall survival, progression-free survival and tumor burden by Kaplan-Meier curves generated using GraphPad Prism software, and determined p values by 2-tailed analysis with log-rank tests.

[3] = test system: colon (RKO, HCT116, DID1) and pancreatic (PA-TU-8988T) cancer cell lines; assay: Viability of adenocarcinoma cell lines; assay type: cell-based
Method: as §1

[4] = test system: sensitive cell lines (expressing ADK at high levels); assay: Viability in 6-ETI-sensitive cell lines; assay type: cell-based; conditions: p6-ETI: sensitive ADK-high lines; c6-ETI: PEL, MM, colon and pancreatic adenocarcinoma lines
Method: as §1

[5] = test system: MM cell lines JJN3, MM1S, U266 and CAG; assay: CellTiter-Glo viability assay, MM cell lines; assay type: cell-based; conditions: 48 hrs
Method: as §1

[6] = test system: ADK-low resistant cell lines; assay: Viability in ADK-low resistant cell lines; assay type: cell-based; conditions: some lines, not all
Method: as §1

[7] = Homo sapiens, 48 h, read-out: LC50 BC3 (PEL) in nM
[8] = Homo sapiens, 48 h, read-out: LC50 IBL-1 (DLBCL)
[9] = Homo sapiens, U-266, 48 h, read-out: LC50 U266 (MM) in nM
[10] = Homo sapiens, 48 h, read-out: LC50 BC3 (PEL)
[11] = Homo sapiens, U-266, 48 h, read-out: LC50 U266 (MM)

ADK, sequence (P55263 whole entry): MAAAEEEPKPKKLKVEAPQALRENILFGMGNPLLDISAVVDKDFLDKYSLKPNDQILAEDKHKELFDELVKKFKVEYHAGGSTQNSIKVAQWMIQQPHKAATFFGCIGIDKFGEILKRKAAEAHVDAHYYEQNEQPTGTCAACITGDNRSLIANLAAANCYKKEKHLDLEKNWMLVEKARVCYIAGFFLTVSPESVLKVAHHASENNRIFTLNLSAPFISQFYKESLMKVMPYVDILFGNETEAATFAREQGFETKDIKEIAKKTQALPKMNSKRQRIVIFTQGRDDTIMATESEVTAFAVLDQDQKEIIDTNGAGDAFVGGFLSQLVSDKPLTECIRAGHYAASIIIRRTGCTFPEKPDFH

Q: With `Sc1ncnc2nc[nH]c12` [6-Mercaptopurine] as the compound, how does the CC50 (BC3 (PEL); [7]) read?
A: 5140 nM

Q: And the CC50 (IBL-1 (EBV+ DLBCL); [8])?
A: > 100000 nM

Q: And the CC50 (U266 (MM); [9])?
A: 10300 nM

Q: For `Nc1ncnc2nc(-c3ccc(N4CCOCC4)nc3)cc(-c3cccc(Br)c3)c12` [ABT-702], which “rescue from 6-ETI-induced cell death” value [1] is on record?
A: effectively rescued PEL cells from cell death

Q: What about the IC50 (ADK) of the same compound?
A: 0.051 µM

Q: For `CCSc1ncnc2c1nc(Br)n2[C@@H]1O[C@H](CO)[C@@H](O)[C@H]1O` [Br group at C8 position, 8-bromo, 6-thioehtyl purine riboside], which IC50 (PEL cell line) is on record?
A: 8.13 µM

Q: For `CCSc1ncnc2c1nc(Cl)n2[C@@H]1O[C@H](CO)[C@@H](O)[C@H]1O` [C1 group at C8 position, 8-chloro, 6-thioethyl purine riboside], which IC50 (PEL cell line) is on record?
A: 1.41 µM

Q: Which CC50 (BC3 (PEL); [7]) does the source give for `Nc1nc(Cl)nc2c1ncn2[C@H]1C[C@H](O)[C@@H](CO)O1` [Cladribine] here?
A: 5240 nM

Q: What about the CC50 (IBL-1 (EBV+ DLBCL); Homo sapiens, 48 h, read-out: LC50 IBL-1 (DLBCL) in nM) of the same compound?
A: 290 nM

Q: What about the CC50 (U266 (MM); [9]) of the same compound?
A: 29200 nM

Q: Which “rescue from 6-ETI-induced cell death” value [1] does the source give for `Nc1ncnc2c1c(I)cn2[C@@H]1C[C@H](N)[C@@H](O)[C@H]1O` [Compound A-134974] here?
A: effectively rescued PEL cells from cell death

Q: What about the IC50 (ADK) of the same compound?
A: 0.05 µM

Q: Which results are given for `O=c1[nH]cnc2c1ncn2[C@H]1CC[C@@H](CO)O1` [Didanosine]?
A: CC50 (BC3 (PEL); [10]): > 100000 nM; CC50 (IBL-1 (EBV+ DLBCL); [8]): > 100000 nM; CC50 (U266 (MM); [11]): > 100000 nM

Q: With `Nc1nc(F)nc2c1ncn2[C@@H]1O[C@H](CO)[C@@H](O)[C@@H]1O` [Fludarabine] as the compound, how does the CC50 (BC3 (PEL); 48 hours, CellTiter-Glo, read-out: LC50 BC3 (PEL)) read?
A: > 100000 nM

Q: And the CC50 (IBL-1 (EBV+ DLBCL); 48 hours, CellTiter-Glo, read-out: LC50 IBL-1 (DLBCL))?
A: 28900 nM

Q: And the CC50 (U266 (MM); 48 hours, CellTiter-Glo, read-out: LC50 U266 (MM))?
A: 90700 nM

Q: For `CCSc1ncnc2c1nc(N=[N+]=[N-])n2C1OC(CO)C(O)C1O` (stereo not shown) [N3 group at C8 position], which IC50 (PEL cell line) is on record?
A: 1.13 µM

Q: With `Nc1ncnc2c1ncn2[C@@H]1O[C@H](CO)[C@@H](O)[C@@H]1O` [Vidarabine] as the compound, how does the CC50 (BC3 (PEL); [10]) read?
A: > 100000 nM

Q: What about the CC50 (IBL-1 (EBV+ DLBCL); [8]) of the same compound?
A: > 100000 nM

Q: What about the CC50 (U266 (MM); [11]) of the same compound?
A: > 100000 nM

Q: What does the source list for `CCSc1ncnc2c1ncn2[C@@H]1O[C@@H]2COP(=O)(O)OC2C1O` (stereo partly shown) [c6-ETI]?
A: tumor growth in vivo [2]: effectively inhibited tumor growth in vivo; LC50 [3]: nanomolar range; effectiveness compared with 6-ETI [4]: equally as effective

Q: Which results are given for `CCSc1ncnc2c1ncn2[C@@H]1O[C@H](COP(=O)(O)O)[C@@H](O)[C@H]1O` [p6-ETI]?
A: effect on resistance of IBL-1 cells (IBL-1 (EBV+ DLBCL); IBL-1 express low levels of ADK, 48 hrs): partially overcomes resistance; tumor growth in vivo [2]: effectively inhibited tumor growth in vivo; LC50 [5]: high nM range; LC50 [3]: nanomolar range; effectiveness compared with 6-ETI [4]: equally effective as 6-ETI; sensitivity of ADK-low resistant cell lines [6]: only partial sensitivity
